Results from patent publication US9150548B2, “Combinations of AKT inhibitor compounds and vemurafenib, and methods of use” (Genentech, Inc., priority 2011, dated 2015).

Legend:
[1] = tested on: prostate specific antigen serum levels; conditions: after a month of taking the medicine; cited from earlier work
[2] = tested on: PTEN null line; test: CellTiter-Glo combination assay with docetaxel (FIG. 19); assay type: cell-based
Excerpt: Viable cells are reflected in relative luminescence units (RLU).

[3] = tested on: LuCap35V primary human prostate tumor model; test: In vivo tumor xenograft efficacy, LuCap35V (FIG. 1); set-up: species or system mice
Excerpt: FIG. 1 illustrates results for the compound of Example 2 and docetaxel in LuCap35V primary prostate tumors. FIG. 2 illustrates results for the compound of Example 2 dosed intermittently either PO or IP and docetaxel in PC3-NCI prostate tumors. FIG. 3 illustrates results for the compound of Example 2 dosed PO and docetaxel in PC3-NCI prostate tumors. FIG. 4 illustrates results for the compound of Example 2 dosed IP intermittently and docetaxel in MCF7-neo/HER2 tumors. FIG. 5 illustrates results for the compound of Example 2 dosed PO and docetaxel in MCF7-neo/HER2 breast tumors. FIG. 6 illustrates results for the compound of Example 2 and docetaxel in MAXF401 mammary tumors. FIG. 7 illustrates results for the compound of Example 2 and docetaxel in SKOV3 ovarian tumors. FIG. 8 illustrates results for the compound of Example 2 and cisplatnin in SKOV3 ovarian tumors. FIG. 9 illustrates results for the compound of Example 2 dosed PO and carboplatin in IGROV-1 ovarian tumors. FIG. 10 illustrates results for the compound of Example 2 and GDC-0973 at 2.5 mg/kg in H2122 NCI-NSCL tumors. FIG. 11 illustrates results for the compound of Example 2 and GDC-0973 at 5.0 mg/kg in NCI-H2122 NSCLC tumors. FIG. 12 illustrates results for the compound of Example 2 and GDC-0973 at 7.5 mg/kg in NCI-H2122 NSCLC tumors. FIG. 13 illustrates results for the compound of Example 2 and MDV3100 in LuCap35V tumors.

[4] = active metabolite vs irinotecan itself; cited from earlier work

Compound: CNC(=O)c1ccc(N2C(=S)N(c3ccc(C#N)c(C(F)(F)F)c3)C(=O)C2(C)C)cc1F [MDV3100, 4-(3-(4-cyano-3-(trifluoromethyl)phenyl)-5,5-dimethyl-4-oxo-2-thioxoimidazolidin-1-yl)-2-fluoro-N-methylbenzamide]
- decrease in prostate specific antigen serum levels [1]: ≤ 89%

Compound: CC(C)NC[C@@H](C(=O)N1CCN(c2ncnc3c2[C@H](C)C[C@H]3O)CC1)c1ccc(Cl)cc1 [Example 2, (S)-2-(4-chlorophenyl)-1-(4-((5R,7R)-7-hydroxy-5-methyl-6,7-dihydro-5H-cyclopenta[d]pyrimidin-4-yl)piperazin-1-yl)-3-(isopropylamino)propan-1-one]
- single agent response [2]: minimal single agent response
- tumor response (FIG. 1) [3]: tumor stasis

Compound: CCc1c2c(nc3ccc(O)cc13)-c1cc3c(c(=O)n1C2)COC(=O)[C@]3(O)CC [SN-38, 7-ethyl-10-hydroxy-camptothecin]
- activity relative to irinotecan [4]: 200 times

Compound: CC(=O)O[C@@]12CO[C@@H]1C[C@H](O)[C@@]1(C)C(=O)[C@H](O)C3=C(C)[C@@H](OC(=O)[C@H](O)[C@@H](NC(=O)OC(C)(C)C)c4ccccc4)C[C@@](O)([C@@H](OC(=O)c4ccccc4)[C@H]21)C3(C)C [docetaxel, (2R,3S)—N-carboxy-3-phenylisoserine, N-tert-butyl ester, 13-ester with 5, 20-epoxy-1,2,4,7,10,13-hexahydroxytax-11-en-9-one 4-acetate 2-benzoate, trihydrate]
- tumor response (FIG. 1) [3]: tumor stasis
